Laboratory results as given in paper PMC12847965 (Nature Communications, 2025).

Target: T1, E. coli GlpG (Escherichia coli, UniProt P09391)
T1 sequence (P09391 1-276): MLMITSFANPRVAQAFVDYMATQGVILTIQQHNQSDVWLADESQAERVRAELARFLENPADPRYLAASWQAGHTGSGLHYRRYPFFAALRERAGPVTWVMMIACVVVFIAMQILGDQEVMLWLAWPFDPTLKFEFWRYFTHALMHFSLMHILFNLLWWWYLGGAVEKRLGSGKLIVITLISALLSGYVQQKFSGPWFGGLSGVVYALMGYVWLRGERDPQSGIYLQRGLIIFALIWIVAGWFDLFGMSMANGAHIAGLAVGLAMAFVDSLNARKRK
Experiment: FRET peptide cleavage assay
Type: biochemical

- IC50: 296 µM
Structure (SMILES): Cc1ccc(S(=O)(=O)N[C@@H](Cc2ccccc2)C(=O)CCl)cc1 [tosyl phenylalanyl chloromethylketone]
